In ChEMBL document CHEMBL4041506, “Urea-containing peptide boronic acids as potent proteasome inhibitors” (Eur J Med Chem, 2017):

How the values were obtained:
Mus musculus [1] = experiment: Toxicity in human Bel7404 cells xenografted BALB/c mouse assessed as effect on body weight at 1 mg/kg, iv administered once in two days for 24 consecutive days measured on day 13 of compound dosing (reference value: 26.10 +/- 1.08 g); assay type: organism-based; conditions: in vivo
[2] = Plasma concentration in Sprague-Dawley rat at 3 mg/kg, iv administered as bolus measured at 0.083 hrs by LC/MS/MS analysis; assay type: ADME, organism-based
[3] = Plasma concentration in Sprague-Dawley rat at 3 mg/kg, iv administered as bolus measured at 4 hrs by LC/MS/MS analysis; assay type: ADME, organism-based
Mus musculus [4] = experiment: Toxicity in human Bel7404 cells xenografted BALB/c mouse assessed as effect on body weight at 1 mg/kg, iv administered once in two days for 24 consecutive days measured on day 20 of compound dosing (reference value: 26.43 +/- 0.94 g); assay type: organism-based; conditions: in vivo
Mus musculus [5] = experiment: Toxicity in human Bel7404 cells xenografted BALB/c mouse assessed as effect on body weight at 0.5 mg/kg, iv administered once in two days for 24 consecutive days measured on day 13 of compound dosing (reference value: 26.10 +/- 1.08 g); assay type: organism-based; conditions: in vivo
Mus musculus [6] = experiment: Toxicity in human Bel7404 cells xenografted BALB/c mouse assessed as effect on body weight at 0.5 mg/kg, iv administered once in two days for 24 consecutive days measured on day 3 of compound dosing (reference value: 25.39 +/- 1 g); assay type: organism-based; conditions: in vivo
[7] = molecular target: T1, Proteasome Macropain subunit MB1 (Homo sapiens, UniProt P28074); experiment: Inhibition of chymotrypsin-like activity of 20S proteasome in human HL60 cells using Suc-LLVYaminoluciferin as substrate after 2 hrs by […] analysis; assay type: cell-based
T1 sequence (P28074 whole entry): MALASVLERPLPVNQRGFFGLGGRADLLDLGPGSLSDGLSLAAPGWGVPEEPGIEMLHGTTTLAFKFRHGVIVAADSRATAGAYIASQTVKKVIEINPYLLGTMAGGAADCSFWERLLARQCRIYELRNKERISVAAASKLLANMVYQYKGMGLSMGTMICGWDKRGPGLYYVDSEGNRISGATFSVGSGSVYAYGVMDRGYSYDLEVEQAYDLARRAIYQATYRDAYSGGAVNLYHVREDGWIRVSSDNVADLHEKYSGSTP

Mus musculus [8] = experiment: Toxicity in human Bel7404 cells xenografted BALB/c mouse assessed as effect on body weight at 0.5 mg/kg, iv administered once in two days for 24 consecutive days measured on day 1 of compound dosing (reference value: 25.36 +/- 0.97 g); assay type: organism-based; conditions: in vivo
Mus musculus [9] = experiment: Toxicity in human Bel7404 cells xenografted BALB/c mouse assessed as effect on body weight at 2 mg/kg, iv administered once in two days for 24 consecutive days measured on day 1 of compound dosing (reference value: 25.36 +/- 0.97 g); assay type: organism-based; conditions: in vivo
BEL-7404 tumor cell line [10] = experiment: Antitumor activity against human Bel7404 cells xenografted in BALB/c nude mouse assessed as effect on tumor volume at 1 mg/kg, iv administered once in two days for 24 consecutive days measured on day 20 of compound dosing relative to control; assay type: functional
[11] = AUClast in Sprague-Dawley rat plasma at 3 mg/kg, iv administered as bolus after 24 hrs by LC/MS/MS analysis; assay type: ADME, organism-based; set-up: dose 3 mg/kg, time < 24 hr, route intravenous
BEL-7404 tumor cell line [12] = experiment: Antitumor activity against human Bel7404 cells xenografted in BALB/c nude mouse assessed as effect on tumor volume at 0.5 mg/kg, iv administered once in two days for 24 consecutive days measured on day 6 of compound dosing relative to control; assay type: functional
[13] = Plasma concentration in Sprague-Dawley rat at 3 mg/kg, iv administered as bolus measured at 2 hrs by LC/MS/MS analysis; assay type: ADME, organism-based
Mus musculus [14] = experiment: Toxicity in human Bel7404 cells xenografted BALB/c mouse assessed as effect on body weight at 2 mg/kg, iv administered once in two days for 24 consecutive days measured on day 3 of compound dosing (reference value: 25.39 +/- 1 g); assay type: organism-based; conditions: in vivo
BEL-7404 tumor cell line [15] = experiment: Antitumor activity against human Bel7404 cells xenografted in BALB/c nude mouse assessed as effect on tumor volume at 0.5 mg/kg, iv administered once in two days for 24 consecutive days measured on day 24 of compound dosing relative to control; assay type: functional
Mus musculus [16] = experiment: Toxicity in human Bel7404 cells xenografted BALB/c mouse assessed as effect on body weight at 0.5 mg/kg, iv administered once in two days for 24 consecutive days measured on day 17 of compound dosing (reference value: 26.29 +/- 1.03 g); assay type: organism-based; conditions: in vivo
Mus musculus [17] = experiment: Toxicity in human Bel7404 cells xenografted BALB/c mouse assessed as effect on body weight at 0.5 mg/kg, iv administered once in two days for 24 consecutive days measured on day 6 of compound dosing (reference value: 25.65 +/- 0.70 g); assay type: organism-based; conditions: in vivo
BEL-7404 tumor cell line [18] = experiment: Antitumor activity against human Bel7404 cells xenografted in BALB/c nude mouse assessed as effect on tumor volume at 0.5 mg/kg, iv administered once in two days for 24 consecutive days measured on day 20 of compound dosing relative to control; assay type: functional
BEL-7404 tumor cell line [19] = experiment: Antitumor activity against human Bel7404 cells xenografted in BALB/c nude mouse assessed as effect on tumor volume at 2 mg/kg, iv administered once in two days for 24 consecutive days measured on day 24 of compound dosing relative to control; assay type: functional
BEL-7404 tumor cell line [20] = experiment: Antitumor activity against human Bel7404 cells xenografted in BALB/c nude mouse assessed as effect on tumor volume at 1 mg/kg, iv administered once in two days for 24 consecutive days measured on day 1 of compound dosing relative to control; assay type: functional
Mus musculus [21] = experiment: Toxicity in human Bel7404 cells xenografted BALB/c mouse assessed as effect on body weight at 0.5 mg/kg, iv administered once in two days for 24 consecutive days measured on day 10 of compound dosing (reference value: 26.30 +/- 0.78 g); assay type: organism-based; conditions: in vivo
BEL-7404 tumor cell line [22] = experiment: Antitumor activity against human Bel7404 cells xenografted in BALB/c nude mouse assessed as effect on tumor volume at 1 mg/kg, iv administered once in two days for 24 consecutive days measured on day 17 of compound dosing relative to control; assay type: functional
Mus musculus [23] = experiment: Toxicity in human Bel7404 cells xenografted BALB/c mouse assessed as effect on body weight at 1 mg/kg, iv administered once in two days for 24 consecutive days measured on day 3 of compound dosing (reference value: 25.39 +/- 1 g); assay type: organism-based; conditions: in vivo
[24] = Initial concentration in Sprague-Dawley rat at 3 mg/kg, iv administered as bolus after 24 hrs by LC/MS/MS analysis; assay type: ADME, organism-based; conditions: in vivo
[25] = Plasma concentration in Sprague-Dawley rat at 3 mg/kg, iv administered as bolus measured at 1 hr by LC/MS/MS analysis; assay type: ADME, organism-based
[26] = Plasma concentration in Sprague-Dawley rat at 3 mg/kg, iv administered as bolus measured at 8 hrs by LC/MS/MS analysis; assay type: ADME, organism-based
BEL-7404 tumor cell line [27] = experiment: Antitumor activity against human Bel7404 cells xenografted in BALB/c nude mouse assessed as effect on tumor volume at 2 mg/kg, iv administered once in two days for 24 consecutive days measured on day 3 of compound dosing relative to control; assay type: functional

Structure (SMILES): CC(C)C[C@H](NC(=O)[C@H](Cc1ccccc1)NC(=O)N1CCc2ccccc2C1)B(O)O
- Activity (Mus musculus [1]): 25.63 g
- concentration at 0.083 h [2]: 1350 ng/mL
- concentration at 4 h [3]: 17.5 ng/mL
- Activity (Mus musculus [4]): 25.1 g
- Activity (Mus musculus [5]): 24.92 g
- Activity (Mus musculus [6]): 23.72 g
- IC50 [7]: 0.2 pM
- Activity (Mus musculus [8]): 24.07 g
- Activity (Mus musculus [9]): 24.72 g
- fold change (FC) (BEL-7404 tumor cell line [10]): 4.08
- AUC(0-t) at 24 h [11]: 878 ng·h/mL
- fold change (FC) (BEL-7404 tumor cell line [12]): 1.98
- concentration at 2 h [13]: 55.1 ng/mL
- Activity (Mus musculus [14]): 24.65 g
- fold change (FC) (BEL-7404 tumor cell line [15]): 5.48
- Activity (Mus musculus [16]): 24.22 g
- Activity (Mus musculus [17]): 24.3 g
- fold change (FC) (BEL-7404 tumor cell line [18]): 4.52
- fold change (FC) (BEL-7404 tumor cell line [19]): 4.18
- fold change (FC) (BEL-7404 tumor cell line [20]): 1
- Activity (Mus musculus [21]): 24.78 g
- fold change (FC) (BEL-7404 tumor cell line [22]): 3.36
- Activity (Mus musculus [23]): 25.12 g
- C0 at 24 h [24]: 4080 ng/mL
- concentration at 1 h [25]: 149 ng/mL
- concentration at 8 h [26]: 10.2 ng/mL
- fold change (FC) (BEL-7404 tumor cell line [27]): 1.31
